From ChEMBL document CHEMBL1139663, “6H-Benzo[c]chromen-6-one derivatives as selective ERbeta agonists” (Bioorg Med Chem Lett, 2006)

Experiments:
Estrogen receptor = molecular target: T1, Estrogen receptor (Homo sapiens, UniProt P03372)
T1 sequence (P03372 whole entry): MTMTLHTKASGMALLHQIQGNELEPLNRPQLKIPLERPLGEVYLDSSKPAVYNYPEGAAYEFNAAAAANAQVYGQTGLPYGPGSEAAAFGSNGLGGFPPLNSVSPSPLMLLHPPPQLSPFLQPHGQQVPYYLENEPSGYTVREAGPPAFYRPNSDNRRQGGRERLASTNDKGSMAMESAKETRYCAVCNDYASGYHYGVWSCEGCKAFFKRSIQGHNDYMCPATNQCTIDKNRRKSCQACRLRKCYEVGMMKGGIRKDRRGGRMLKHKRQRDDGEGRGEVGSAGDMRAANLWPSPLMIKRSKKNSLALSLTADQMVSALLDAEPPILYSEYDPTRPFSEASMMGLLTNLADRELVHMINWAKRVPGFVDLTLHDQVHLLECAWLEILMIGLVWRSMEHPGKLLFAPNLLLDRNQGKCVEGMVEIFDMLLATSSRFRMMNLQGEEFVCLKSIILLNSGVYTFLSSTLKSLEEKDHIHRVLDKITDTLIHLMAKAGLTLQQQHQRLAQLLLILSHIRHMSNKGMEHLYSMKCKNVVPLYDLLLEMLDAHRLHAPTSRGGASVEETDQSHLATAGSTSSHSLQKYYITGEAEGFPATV
Description: Binding affinity to ERalpha

Estrogen receptor beta [1] = molecular target: T2, Estrogen receptor beta (Homo sapiens, UniProt Q92731)
T2 sequence (Q92731 whole entry): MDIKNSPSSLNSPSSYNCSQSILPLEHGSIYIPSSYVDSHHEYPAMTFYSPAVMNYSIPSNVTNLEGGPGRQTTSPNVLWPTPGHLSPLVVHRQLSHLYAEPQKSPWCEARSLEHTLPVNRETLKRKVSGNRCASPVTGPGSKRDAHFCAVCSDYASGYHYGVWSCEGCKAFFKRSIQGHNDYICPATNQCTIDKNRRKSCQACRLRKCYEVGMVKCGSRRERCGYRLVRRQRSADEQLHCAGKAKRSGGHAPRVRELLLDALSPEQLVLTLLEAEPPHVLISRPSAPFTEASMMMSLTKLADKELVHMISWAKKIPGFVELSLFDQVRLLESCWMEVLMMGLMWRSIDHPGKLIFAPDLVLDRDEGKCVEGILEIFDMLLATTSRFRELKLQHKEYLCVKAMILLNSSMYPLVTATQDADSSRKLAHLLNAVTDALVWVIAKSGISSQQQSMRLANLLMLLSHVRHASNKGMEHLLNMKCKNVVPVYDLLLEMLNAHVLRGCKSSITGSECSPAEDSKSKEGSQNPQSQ
Description: Binding affinity to ERbeta

Estrogen receptor beta [2] = molecular target: T2, Estrogen receptor beta; remark: listed apart in the source
Description: Binding affinity to ERbeta in presence of serum

Estrogen receptor beta [3] = molecular target: T2, Estrogen receptor beta; remark: listed apart in the source
Description: Binding affinity to ERbeta in HTRF coactivator recruitment assay

Row | Structure (SMILES) | IC50 (Estrogen receptor) [nM] | IC50 (Estrogen receptor beta [1]) [nM] | IC50 (Estrogen receptor beta [2]) [nM] | EC50 (Estrogen receptor beta [3]) [nM]
1 | Cc1c(O)c(Cl)c(C)c2c1c(=O)oc1c(Cl)c(O)ccc12 | 597 | 22 |  | 
2 | Cc1c(O)ccc2c1c(=O)oc1cc(O)cc(C)c12 | 1860 | 67 |  | 
3 | Cc1cc2c(cc1Br)c(=O)oc1c(C)c(O)ccc12 | 6850 | 215 |  | 
4 | CCc1cc(OC)cc2c(=O)oc3c(C)c(O)ccc3c12 | 9830 | 69 |  | 
5 | CCC1Oc2c(ccc(O)c2C)-c2c(C)cc(O)c(C)c21 (stereo not drawn) | 129 | 2.3 |  | 
6 | C=Cc1cc(O)cc2c1-c1ccc(O)c(C)c1CC2 [EFFUSOL] |  | 12 |  | 
7 | CCc1c(O)ccc2c1c(=O)oc1c(F)c(O)ccc12 | 228 | 21 |  | 
8 | Cc1c(O)ccc2c1oc(=O)c1cc(O)ccc12 | 654 | 46 |  | 
9 | Cc1c(O)ccc2c1c(=O)oc1c(Br)c(O)ccc12 | 1920 | 67 |  | 
10 | Cc1c(O)ccc2c1oc(=O)c1c(C)c(NC=O)ccc12 | > 10000 | 957 |  | 
11 | Cc1c(O)ccc2c1oc(=O)c1c(C)c(NS(C)(=O)=O)ccc12 | 4260 | 433 |  | 
12 | Cc1c(O)ccc2c1oc(=O)c1c(C)ccc(C)c12 | 3070 | 80 |  | 
13 | Cc1c(O)ccc2c1oc(=O)c1c(C)c(O)cc(C)c12 | 716 | 5.7 |  | 
14 | Cc1c(O)ccc2c1oc(=O)c1cc(Br)ccc12 | > 10000 | 128 |  | 
15 | CCc1c(O)ccc2c1oc(=O)c1c(C)c(O)ccc12 | 229 | 7.8 |  | 
16 | Cc1cc(C)c2c(c1)c(=O)oc1c(C)c(O)ccc12 | 3710 | 20 |  | 
17 | Cc1c(O)ccc2c1oc(=O)c1c(C)cccc12 | > 10000 | 93 |  | 
18 | Cc1c(O)ccc2c1oc(=O)c1ccccc12 | > 10000 | 1450 |  | 
19 | O=c1oc2c(Cl)c(O)ccc2c2cc(F)c(O)c(Cl)c12 | 11600 | 180 |  | 
20 | C/C=C/c1cccc2c(=O)oc3c(C)c(O)ccc3c12 | 3030 | 116 |  | 

Row | Structure (SMILES) | IC50 (Estrogen receptor) [nM] | IC50 (Estrogen receptor beta [1]) [nM] | IC50 (Estrogen receptor beta [2]) [nM] | EC50 (Estrogen receptor beta [3]) [nM]
21 | COc1c(C)c(Br)c2c(=O)oc3c(C)c(O)ccc3c2c1C | 225 | 1.15 |  | 
22 | C=CCc1cc(C)cc2c(=O)oc3c(C)c(O)ccc3c12 | 10000 | 35 |  | 
23 | C=Cc1cc(OC)cc2c(=O)oc3c(C)c(O)ccc3c12 | > 10000 | 53 |  | 
24 | C=Cc1ccc2c(c1)c(=O)oc1c(C)c(O)ccc12 | 4590 | 310 |  | 
25 | Cc1cc(O)cc2c1-c1ccc(O)c(C)c1OC2 | 1030 | 74 |  | 
26 | Cc1cc(O)c(Cl)c2c(=O)oc3c(Cl)c(O)ccc3c12 | 2520 | 18 |  | 
27 | CCC1Oc2c(ccc(O)c2C)-c2c(C)cc(O)cc21 (stereo not drawn) | 435 | 8 |  | 
28 | Cc1c(O)ccc2c1oc(=O)c1cc(O)cc(C)c12 | 583 | 54 |  | 
29 | Cc1c(O)ccc2c1oc(=O)c1c(C)c(N)ccc12 | 14300 | 279 |  | 
30 | COc1ccc2c(c1)c(=O)oc1c(C)c(O)ccc12 | > 10000 | 308 |  | 
31 | Cc1cc(Br)c2c(c1)c(=O)oc1c(C)c(O)ccc12 | 3120 | 44 |  | 
32 | Cc1cc(C)c2c(c1)c(=O)oc1cc(O)ccc12 | 585 | 90 |  | 
33 | Cc1cc(O)cc2c1-c1ccc(O)c(C)c1OC2CC(C)C (stereo not drawn) | 627 | 49 |  | 
34 | Cc1c(O)ccc2c1c(=O)oc1c(F)c(O)ccc12 | 1580 | 54 |  | 
35 | Cc1c(O)ccc2c1oc(=O)c1c(O)c(O)ccc12 | 1280 | 82 |  | 
36 | Cc1c(O)c(Cl)cc2c1c(=O)oc1c(Cl)c(O)ccc12 | 524 | 19 |  | 
37 | C=CCC1(C)Oc2c(ccc(O)c2C)-c2c(C)cc(O)c(C)c21 (stereo not drawn) | 157 | 13 |  | 
38 | CCc1c(O)ccc2c1oc(=O)c1cc(Br)ccc12 | 5460 | 2340 |  | 
39 | CCCC1Oc2c(ccc(O)c2C)-c2c(C)cc(O)cc21 (stereo not drawn) | 626 | 22 |  | 
40 | COc1cc2c(=O)oc3c(C)c(O)ccc3c2cc1Br | 10000 | 77 |  | 

Row | Structure (SMILES) | IC50 (Estrogen receptor) [nM] | IC50 (Estrogen receptor beta [1]) [nM] | IC50 (Estrogen receptor beta [2]) [nM] | EC50 (Estrogen receptor beta [3]) [nM]
41 | Cc1c(O)ccc2c1oc(=O)c1cccc(C)c12 | > 10000 | 326 |  | 
42 | Cc1c(O)cc(C)c2c1oc(=O)c1c(C)c(O)ccc12 | 785 | 6.7 |  | 
43 | C=Cc1cccc2c(=O)oc3c(C)c(O)ccc3c12 | > 10000 | 208 |  | 
44 | COc1c(C)cc2c(=O)oc3c(C)c(O)ccc3c2c1C | 4160 | 16 |  | 
45 | Cc1c(O)ccc2c1COc1c-2ccc(O)c1C | 4610 | 88 |  | 
46 | Cc1c(O)cc(C)c2c1oc(=O)c1cc(O)ccc12 | 488 | 27 |  | 
47 | Cc1cc(O)c(C)c2c1-c1ccc(O)c(C)c1OC2C (stereo not drawn) | 237 | 9 |  | 
48 | Cc1c(O)ccc2c1oc(=O)c1c(Br)cc(Br)cc12 | 597 | 24 |  | 
49 | COc1ccc2c(c1C)c(=O)oc1c(C)c(O)ccc12 | 1000 | 117 |  | 
50 | CCc1cc(O)cc2c(=O)oc3c(C)c(O)ccc3c12 | 1780 | 91 |  | 
51 | Cc1c(O)ccc2c1OC(C)c1c-2ccc(O)c1C (stereo not drawn) | 335 | 8 |  | 
52 | CCC1Oc2c(ccc(O)c2C)-c2ccc(O)c(C)c21 (stereo not drawn) | 101 | 3.2 |  | 
53 | Cc1cc2c(=O)oc3c(C)c(O)ccc3c2c(C)c1Br | > 10000 | 57 |  | 
54 | CC/C=C/c1cc2c(cc1Br)c(=O)oc1c(C)c(O)ccc12 | 1090 | 26 |  | 
55 | Cc1c(O)ccc2c1c(=O)oc1cc(O)ccc12 | 1170 | 49 |  | 
56 | Cc1c(O)ccc2c1oc(=O)c1c(C)c(O)ccc12 | 159 | 4.1 | 78 | 7.2
57 | Cc1cc(O)cc2c1-c1ccc(O)c(C)c1OC2C (stereo not drawn) | 1210 | 24 |  | 
58 | C=Cc1cc(C)cc2c(=O)oc3c(C)c(O)ccc3c12 | 10000 | 10 | 1280 | > 1000
59 | CCc1c(O)ccc2c1c(=O)oc1c(C)c(O)ccc12 | 484 | 14 |  | 
60 | Cc1c(O)ccc2c1OC(C)(C)c1c-2ccc(O)c1C | 468 | 45 |  | 
